Measured values published in patent US20150004636A1, “NEURONAL BIOSENSOR FOR DETECTION OF TOXINS” (priority 2011, published 2015).
Read-outs that look alike come from different tables or passages of the source.

Assays:
Format in all cases: cell-based, chick
[1] = tested on: dorsal root ganglia (DRG) neurons
Method: The eggs were incubated for 10 days before dissection in a dark egg incubator with motion at a dry temperature of 86-100° F. and wet temperature of 84-86° F. From the ventral side, the spines of the embryos were exposed, the kidneys were removed one at a time under higher dissecting power carefully so as not to remove the nerve chains situated just below the kidney along the ventral side of the spinal cord. The DRGs were each dissected from the area between the bottom of the ribs and the posterior end of the embryo, placed in a tissue culture dish containing F12 media. DRGs from 12 embryos were transferred with a fire-polished Louis Pasteur pipette to a sterile 15 ml tube. After the DRGs settled to the bottom of the tube, a pipette was used to carefully remove the F12 media, avoiding removal of any DRGs. Ten mLs of 5% trypsin were added to the tube with DRGs, mixed, and incubated for 30 minutes in a 37° C. water bath. Every 10 minutes of incubation the tube was removed from the water bath and tapped to mix the DRGs and allow the trypsin to digest connective tissue to separate the neurons. After incubation, trypsin was removed using a pipette. The cells were rinsed with 2 ml of Neurobasal media 2-3 times by adding media, allowing the DRGs to settle to the bottom of the tube before removing the media, and adding another 2 ml of media. After the final rinse, the volume was brought up to 1 ml and the dissociated neurons were triturated with a medium-sized, then a small-sized, fire-polished Louis Pasteur pipette until the cell solution appeared cloudy and no individual DRGs were present in the media. A small amount of the solution was transferred to a hemocytometer and the single cells were counted. The cell solution was diluted so that 10-15×10^4 cells were added to an Alconox® treated, 0.1 mg/ml collagen coated, 25 mm diameter round glass coverslip in a 35 mm dish with 2 ml of Neurobasal media. The DRGs were incubated in 5% CO2 at 37° C. for 2-3 days before experimentation. Approximately 1 mL of media was replaced with new media every other day until experiments began.
Experiments began 2-3 days after neurons were plated. A dish of neurons was washed with 1×HBSS then 1×HBSS+1 mg/ml bovine serum albumin (BSA) before the cells were bathed in 4 μM Fura-2AM in 1×HBSS+BSA for incubation for 45 min at 37° C. in 5% CO2. The cells were washed 4× with 1×HBSS and incubated for another 20-60 min in 1×HBSS. A coverslip containing the neurons was removed after the final wash and placed in an apparatus for calcium imaging.
All toxins including nicotine, boric acid, ionomycin, glutamate, and glycine were prepared in 1×HBSS according to their final concentrations (Table 3).
The coverslip containing the neurons was placed in a perfusion apparatus onto an Olympus IX70 microscope equipped with a 20× fluorescence objective, a Mercury lamp and filter sets that optimized the Fura-2 excitation ([…]) and emission wavelengths (510 nm). The cells were bathed continuously by perfusion of solutions at ˜4.7 mL/min. The cells were bathed with 1×HBSS during software setup and for resting Ca^2+ measurements before exposure to stimulating or toxic solutions. InCyt Im2™ software was used to measure the emission intensities and convert to Ca^2+ concentrations. Only designated areas of each neuron soma were chosen for measurements. Calibration curves were generated for conversion of light intensity emitted per excitation wavelength using standard Ca^2+ solutions in the free acid form of Fura-2 to convert emitted light intensity to Ca^2+ concentration. Each experiment began with 3 min wash with HBSS to establish resting intracellular Ca^2+ measurements. Depending on the toxin used, the neurons were then exposed to a flow of toxic/stimulating solution for 5-10 min. Each experiment ended with a 1 min. wash of HBSS to determine reversal or change of the stimulating/toxic solution. […]

DRG neurons [2] = tested on: DRG neurons
DRG neurons [3] = tested on: DRG neurons; remark: listed apart in the source
Method: For microscopy experiments, holes were drilled in the bottom of 35 mm tissue culture dishes with a 7/32″ drill bit and drill press. Etching was performed on 12 mm round glass coverslips that were submerged in 300 ml of boiling 18 MΩ H2O containing 7.5 g Alconox detergent for 30 minutes. The coverslips were then rinsed with 18MΩ H2O and dried in a 150 mm Petri dish in a laminar flow hood. A section of Tygon tubing (0.5 inch long, 0.5 inch inner diameter, and 0.75 inch outer diameter) was used to apply Dow Corning 732 multi-purpose sealant to the bottom of the tissue culture dishes just around the hole that was drilled previously. Forceps were used to press one round glass coverslip to the bottom of each tissue culture dish until a continuous seal was formed around the hole. The tissue culture dishes were laid in a fume hood to dry. Exposure to ultraviolet light for at least an hour or treatment with ethanol for approximately 30 seconds was used to sterilize the dishes. Type VII collagen, to promote cell adhesion to the glass coverslip, was added to each dish for coating and allowed to air dry in the laminar flow hood to maintain sterility. Once the dishes were dry, the lids were placed back on the dishes and the edges of the Petri dishes were then wrapped in Parafilm and stored in a 4° C. refrigerator before use.
Focusing on the FM® dye, the dye was thawed at room temperature and vortexed. A 30 μM FM® dye solution was made with 1×HBSS. The solution was heated to 37° C. and vortexed just before each cell staining experiment. The cells were exposed to the FM® dye solution for 5-10 min before imaging.
The media was removed from the 35 mm tissue culture dish using a micropipette. The surface was then rinsed once with 1 ml HBSS. […]
DRG neurons stained with FM® 4-64 were imaged before exposure to 100 μM ionomycin. […] Over the 10 min of imaging, the samples were moving out of focus and the focus was readjusted intermittently for more consistent images. […]

DRG neurons [4] = assay: Fluorescence spectroscopy of FM 4-64 labeled DRG neurons
Method: For spectroscopy experiments, DRG neurons were grown on 11×22 mm plastic coverslips that were treated with Alconox and coated with Type VII rat tail collagen, using the same methods that were mentioned previously. Cells were plated with ˜15×10^4 cells in each 35 mm tissue culture dish containing one plastic coverslip. The cells were incubated in 5% CO2 at 37° C. for 2 days before experiments began.
Before scanning the cell samples, the coverslip was mounted into a coverglass holder and was held inside a cuvette at a 45° angle from the light source and the photo detector. The coverglass holder was placed in a cuvette containing 1×HBSS to rinse the media from the cells prior to the experiments. For the spectroscopy experiments, the coverglass holder was placed in the cuvette that was filled with either 1×HBSS or stimulating solutions. The orientation of the coverglass in the cuvette was situated so that the cell surface was facing the light source and photodetector, both at 45° angles. For experiments using FM® 4-64, scan were conducted using a HORIBA Jobin Yvon FluoroLog®-3 spectrofluorometer with an excitation wavelength of 558 nm and an emission range was detected from 566 to 750 nm. The slit width for excitation and emission was 3 nm and data was collected every 0.2 sec, once for each wavelength. Fluorescence intensity was detected in counts per second (cps). The data was transferred into MS Excel and analyzed using Matlab.
In Matlab, the maximum intensity of each scan was found for the emission wavelength range of interest and the ratio of the maximum emission intensities was taken between non-labeled, non-stimulated cells and FM®-labeled cells before and after stimulation. This ratio was used to determine the difference in fluorescence, and therefore the amount of stained membranes present in the sample before and after stimulation with ionomycin.
To determine whether a change in fluorescence of FM®-labeled neurons could be measured, the cells were stained and stimulated using the same methods mentioned above. Four emission scans were performed: a control scan of the non-labeled neurons in HBSS, a scan of the FM®-labeled neurons in HBSS, a scan of the FM® labeled neurons in ionomycin 5 min after initial stimulation, and a scan of the post stimulated, FM®-labeled neurons in 1×HBSS wash. The cells were rinsed with warm 1×HBSS before each scan, and the cells were stimulated for a total of 10 min before rinsed with 1×HBSS for the fourth scan. The ratio of fluorescence intensities of non-labeled neurons to FM®-labeled neurons, FM®-labeled ionomycin-stimulated neurons, and FM®-labeled ionomycin-stimulated rinsed neurons in Table 5.

[5] = 10 min, 50 mM boric acid, 500 μM glutamate or 100 μM nicotine
[6] = FM-labeled neurons after 10 min ionomycin stimulation, rinsed in 1×HBSS
[7] = FM-labeled neurons, 5 min in ionomycin

CN1CCCC1c1cccnc1 (stereo not shown) [nicotine]
change of intracellular Ca2+ compared to resting [1]: only a few cells experiencing an increase in intracellular Ca^2+ | axon morphology after stimulation (DRG neurons [2]): swollen axons | migration of FM 4-64 dye in stained neurons (DRG neurons [2]): no migration of FM® 4-64 throughout the cells

CCN(CC)c1ccc(/C=C/C=C/C=C/c2cc[n+](CCC[N+](CC)(CC)CC)cc2)cc1.[Br-].[Br-] [FM® 4-64]
staining of DRG neuron membranes (DRG neurons [3]; 30 μM FM 4-64 in 1×HBSS): complete staining of the cell membranes around the soma and axons

[Cl-].[K+] [KCl, potassium chloride]
mean intracellular Ca2+ concentration during stimulation ([1]; 50 mM KCl, n=104): 511 nM | migration of FM 4-64 dye in stained neurons (DRG neurons [2]; 50 mM KCl, 10 min after addition): some migration of FM® dye throughout the DRG neurons | cell morphology in phase images during stimulation (DRG neurons [2]; 50 mM KCl, 10 min of stimulation): some swelling in small parts of axons

OB(O)O [boric acid]
change of intracellular Ca2+ compared to resting [1]: slight, but significant, decrease | mean intracellular Ca2+ concentration during stimulation [1]: 58 nM | axon morphology after stimulation (DRG neurons [2]): swollen axons | differences in membrane structure before vs after treatment (DRG neurons [2]): very little differences to no differences | migration of FM 4-64 dye in stained neurons (DRG neurons [2]): no migration of FM® 4-64 throughout the cells

N[C@@H](CCC(=O)O)C(=O)O [glutamate]
percent of cells that responded with an increase of intracellular Ca2+ ([1]; 100 μM glutamate): 21% | percent of cells without obvious increase of intracellular Ca2+ (non-responding) ([1]; 100 μM glutamate): 79% | average intracellular Ca2+ concentration, responding cells ([1]; 100 μM glutamate, n=27, resting 68.7 nM): 301 nM | average intracellular Ca2+ concentration, non-responding cells ([1]; 100 μM glutamate, n=100, resting 67 nM): 71 nM | percent of cells that responded with an increase of intracellular Ca2+ ([1]; 500 μM glutamate): 34% | percent of cells without obvious increase of intracellular Ca2+ (non-responding) ([1]; 500 μM glutamate): 66% | average intracellular Ca2+ concentration, responding cells ([1]; 500 μM glutamate, n=75, resting 82): 352 nM | average intracellular Ca2+ concentration, non-responding cells ([1]; 500 μM glutamate, n=146, resting 84 nM): 88 nM | percent of cells that responded with an increase of intracellular Ca2+ ([1]; 1 mM glutamate): 15% | percent of cells without obvious increase of intracellular Ca2+ (non-responding) ([1]; 1 mM glutamate): 85% | average intracellular Ca2+ concentration, non-responding cells ([1]; 1 mM glutamate, n=38, resting 79 nM): 87 nM | axon morphology after stimulation (DRG neurons [2]; [5]): swollen axons | migration of FM 4-64 dye in stained neurons (DRG neurons [2]; [5]): no migration of FM® 4-64 throughout the cells

C[C@H](CCC(=O)O)C[C@H](C)C[C@H](C)C(=O)/C=C(\O)[C@H](C)C[C@H](C)C/C=C/[C@@H](C)[C@@H](O)[C@@H](C)[C@@H](O)C[C@@H]1CC[C@@](C)([C@H]2CC[C@@](C)([C@@H](C)O)O2)O1 [ionomycin]
mean intracellular Ca2+ concentration during stimulation ([1]; ~100 μM ionomycin, highest time points averaged, n=228): 988 nM | change of intracellular Ca2+ compared to resting ([1]; ~100 μM ionomycin, positive control): large and irreversible | cell morphology in phase images during stimulation (DRG neurons [3]; 100 μM ionomycin, up to 10 min): shrinkage of the cell soma | migration of FM 4-64 dye in stained neurons (DRG neurons [3]; 100 μM ionomycin, within the first 25 sec of stimulation): migrated from the membranes of the axons into the soma | Fluorescence Intensity at 667 nm (DRG neurons [4]; [6]): 2238 cps | Fluorescence Intensity at Peak Emission Wavelength (DRG neurons [4]; [6]): 2362 cps | Peak Emission Wavelength (DRG neurons [4]; [6]): 676 nm | Fluorescence Intensity at 667 nm (DRG neurons [4]; [7]): 3303 cps | Fluorescence Intensity at Peak Emission Wavelength (DRG neurons [4]; [7]): 3719 cps | Peak Emission Wavelength (DRG neurons [4]; [7]): 684 nm | Ratio of Fluorescence Intensities at 667 nm (DRG neurons [4]; FM-labeled neurons, 5 min in ionomycin vs non-labeled neurons): 2.05 | Ratio of Fluorescence Intensities at 667 nm (DRG neurons [4]; after 10 min ionomycin stimulation, rinsed in 1×HBSS vs non-labeled neurons): 1.39
